Experimental data reported in patent US7145010B2, “Tert-alkylphenoxy-substituted polycyclic compounds” (BASF Aktiengesellschaft, priority 2001, dated 2006).
Values after ≈ are worked out from the molar mass of the structure shown.

Tests used:
[1] = Solubility in extremely nonpolar to polar solvents
[2] = Homogeneous incorporation into aqueous polymer dispersions (Example 25 of WO-A-99/40123 repeated); format: physicochemical
From the text: Example 25 of WO-A-99/40123 was repeated to prepare aqueous polymer dispersions containing 15% by weight of the fluorescent colorant of Example 2 or […] of the near infrared absorber of Example 6 in homogeneous dispersion. The corresponding phenoxy-substituted derivatives, by contrast, were only incorporable with homogeneous results up to a concentration of respectively 7 and 1% by weight.

Row | Compound | Solubility in Isopropanol (50° C.) [1] [mg/mL] | Solubility in Pentane (25° C.) [1] [mg/mL] | Solubility in Toluene (25° C.) [1] [mg/mL] | Concentration contained in homogeneous dispersion in aqueous polymer dispersion [2] [% by weight]
1 | 1:1 mixture of N,N′-bis(2,6-diisopropylphenyl)-1,6,8,11,16,18-hexa(p-tert-octylphenoxy)-quaterrylene-3,4:13,14-tetracarboxylic diimide and N,N′-bis(2,6-diisopropyl-phenyl)-1,6,8,11,16,19-hexa(p-tert-octylphenoxy)quaterrylene-3,4:13,14-tetracarboxylic diimide [Example 6] | 49 | 55 | >500 | 
2 | CC(C)c1cccc(C(C)C)c1N1C(=O)c2cc(Oc3ccc(C(C)(C)CC(C)(C)C)cc3)c3c4cccc5c(Oc6ccc(C(C)(C)CC(C)(C)C)cc6)ccc(c6c(Oc7ccc(C(C)(C)CC(C)(C)C)cc7)cc(c2c36)C1=O)c54 [Example 1] | 56 (≈ 51.2 mM) | 53 (≈ 48.4 mM) | >250 | 
3 | CC(C)c1cccc(C(C)C)c1N1C(=O)c2cc(Oc3ccc(C(C)(C)CC(C)(C)C)cc3)c3c4c(Oc5ccc(C(C)(C)CC(C)(C)C)cc5)cc5c6c(cc(Oc7ccc(C(C)(C)CC(C)(C)C)cc7)c(c7c(Oc8ccc(C(C)(C)CC(C)(C)C)cc8)cc(c2c37)C1=O)c64)C(=O)N(c1c(C(C)C)cccc1C(C)C)C5=O [Example 2] | 92 (≈ 60.2 mM) | 81 (≈ 53 mM) | >400 | 15
4 | CC(C)c1cccc(C(C)C)c1N1C(=O)c2cc(Oc3ccc(C(C)(C)CC4CCCCC4)cc3)c3c4c(Oc5ccc(C(C)(C)CC6CCCCC6)cc5)cc5c6c(cc(Oc7ccc(C(C)(C)CC8CCCCC8)cc7)c(c7c(Oc8ccc(C(C)(C)CC9CCCCC9)cc8)cc(c2c37)C1=O)c64)C(=O)N(c1c(C(C)C)cccc1C(C)C)C5=O [Example 3] | 87 (≈ 53.3 mM) | 65 (≈ 39.8 mM) | >350 | 
5 | CC(C)c1cccc(C(C)C)c1N1C(=O)c2ccc3c4c(Oc5ccc(C(C)(C)CC(C)(C)C)cc5)cc5c6c(ccc(c7c(Oc8ccc(C(C)(C)CC(C)(C)C)cc8)cc(c2c37)C1=O)c64)C(=O)N(c1c(C(C)C)cccc1C(C)C)C5=O [Example 4] | 59 (≈ 52.7 mM) | 55 (≈ 49.1 mM) | >250 | 
6 | CCCCCCCCCCCCN1C(=O)c2ccc3c4c(Oc5ccc(C(C)(C)CC(C)(C)C)cc5)cc5c6c(ccc(c7c(Oc8ccc(C(C)(C)CC(C)(C)C)cc8)cc(c2c37)C1=O)c64)C(=O)N(CCCCCCCCCCCC)C5=O [Example 5] | 47 (≈ 41.4 mM) | 24 (≈ 21.1 mM) | 155 (≈ 136 mM) | 
